{"source": "patent US6548687B1", "about": "“Chromium L-threonate, process for preparation of the same and their use” (priority 1998, dated 2003)", "key": {"[1]": {"conditions": "for Stable Constant: coordination compound of L-threonic acid and chromic ion, deduced with computer simulation from titration curves; for pH: pH range of the coordination compound model, deduced with computer simulation"}, "[2]": {"experiment": "Precipitation of chromic hydroxide as a function of pH", "format": "physicochemical"}}, "note": "Like-named read-outs stand apart in the source and are kept apart here.", "data": [{"smiles": "O=C(O)[C@H](O)[C@@H](O)CO.[O]=[Cr](=[O])([OH])[OH]", "note": "[Model A, chromate L-threonate]", "values": [{"measurement": "Stable Constant", "setting": "[1]; listed as A", "value": "−4.42 ± 0.14"}, {"measurement": "pH", "setting": "[1]; listed as A", "value": "˜4.5"}]}, {"smiles": "O=C(O)[C@H](O)[C@@H](O)CO.[O]=[Cr](=[O])([OH])[OH]", "note": "[Model B, chromate L-threonate]", "values": [{"measurement": "Stable Constant", "setting": "[1]; listed as B", "value": "−0.74 ± 0.34"}, {"measurement": "pH", "setting": "[1]; listed as B", "value": "3.5-4.0"}]}, {"smiles": "O=C(O)[C@H](O)[C@@H](O)CO.[O]=[Cr](=[O])([OH])[OH]", "note": "[Model C, chromate L-threonate]", "values": [{"measurement": "Stable Constant", "setting": "[1]; listed as C", "value": "−9.35 ± 0.26"}, {"measurement": "pH", "setting": "[1]; listed as C", "value": "˜6.0"}]}, {"smiles": "O=C(O)[C@H](O)[C@@H](O)CO.[O]=[Cr](=[O])([OH])[OH]", "note": "[chromate L-threonate]", "values": [{"measurement": "precipitate of chromic hydroxide", "setting": "[2]; even in basic condition", "value": "no precipitate"}, {"measurement": "dissolution", "setting": "in alcohol and ether", "value": "no dissolution"}, {"measurement": "dissolution", "setting": "in water", "value": "dissolution in water"}]}, {"smiles": "[Cl][Cr]([Cl])[Cl]", "note": "[chromic chloride]", "values": [{"measurement": "pH at which solution forms precipitate", "setting": "[2]", "value": "~4"}]}, {"smiles": "O=S(=O)([O-])[O-].O=S(=O)([O-])[O-].O=S(=O)([O-])[O-].[Cr+3].[Cr+3]", "note": "[chromic sulphate]", "values": [{"measurement": "pH at which solution forms precipitate", "setting": "[2]", "value": "~4"}]}]}
